From patent US5597832A (Abbott Laboratories, priority 1994, dated 1997)
Counter-ions that a name gives are not always drawn. Like-named read-outs stand apart in the source and are kept apart here.

Legend:
dopamine D-1 receptor [1] = target: T1, dopamine D-1 receptor (Rattus norvegicus, UniProt P18901); settings: read-out: D-1 Ki
[2] = tested on: striatal dopamine receptors; assay: animal or person; format: in vivo; settings: Rattus norvegicus, sc, read-out: EC50, rotation behavior
D-1 receptor = assay: Adenylate cyclase assay (agonist activity, cAMP); format: biochemical, goldfish retina or rat striatum
dopamine D-2 receptor = target: T2, dopamine D-2 receptor (Rattus norvegicus, UniProt P61169); assay: D-2 receptor competitive binding, [3H]-spiroperidol, homogenized rat caudate; settings: read-out: D-2 Ki
T2 construct: Homogenized rat caudate was the source of the D-2 receptors; from tissue; host or cells: rat caudate homogenate

dopamine D-1 receptor [3] = target: T1, dopamine D-1 receptor; assay: biochemical
dopamine receptors = settings: literature; cited from earlier work
schizophrenia = settings: literature, cited from earlier work; for antipsychotic effects: low doses
rats = settings: literature; cited from earlier work
Parkinson's disease = settings: alone, some patients; cited from earlier work
[4] = goldfish retina or rat striatum homogenate

T1 sequence (P18901 whole entry): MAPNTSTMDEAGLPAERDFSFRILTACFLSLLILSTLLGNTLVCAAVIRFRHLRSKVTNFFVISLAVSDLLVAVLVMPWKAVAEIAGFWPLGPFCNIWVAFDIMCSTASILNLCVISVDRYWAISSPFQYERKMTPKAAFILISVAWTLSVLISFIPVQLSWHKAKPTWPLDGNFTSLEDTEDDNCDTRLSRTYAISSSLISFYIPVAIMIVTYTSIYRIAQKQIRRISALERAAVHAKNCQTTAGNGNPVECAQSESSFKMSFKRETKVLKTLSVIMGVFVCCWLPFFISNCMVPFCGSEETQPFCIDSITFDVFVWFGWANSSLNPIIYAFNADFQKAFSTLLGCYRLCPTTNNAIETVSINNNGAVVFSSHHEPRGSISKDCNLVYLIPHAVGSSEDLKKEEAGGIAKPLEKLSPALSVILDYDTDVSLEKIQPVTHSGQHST
T2 sequence (P61169 whole entry): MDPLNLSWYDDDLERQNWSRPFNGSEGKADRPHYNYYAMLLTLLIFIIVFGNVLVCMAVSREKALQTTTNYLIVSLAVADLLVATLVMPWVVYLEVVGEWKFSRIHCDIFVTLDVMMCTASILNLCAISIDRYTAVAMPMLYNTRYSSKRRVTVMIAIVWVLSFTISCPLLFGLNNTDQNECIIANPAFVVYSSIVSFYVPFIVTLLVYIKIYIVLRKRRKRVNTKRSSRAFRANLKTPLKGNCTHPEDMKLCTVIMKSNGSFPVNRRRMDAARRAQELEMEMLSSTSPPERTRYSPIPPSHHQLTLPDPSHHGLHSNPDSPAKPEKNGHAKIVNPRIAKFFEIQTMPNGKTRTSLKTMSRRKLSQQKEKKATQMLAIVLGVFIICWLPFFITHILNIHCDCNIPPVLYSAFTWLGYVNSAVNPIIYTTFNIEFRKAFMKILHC

Row | SMILES | ED50 [2] [µmol/kg] | EC50 (D-1 receptor) [nM] | Intrinsic Activity (%) (D-1 receptor) | Ki (dopamine D-2 receptor; rat caudate, [3H]-spiroperidol) [nM] | Ki (dopamine D-1 receptor [3]) [nM] | also measured
1 | CCc1cc2c(o1)CN[C@@H]1CCc3cc(O)c(O)cc3[C@@H]21 (relative stereo) [Example 40, trans-2-Ethyl-4,5,5a,6,7,11b-hexahydro-3-oxa-5-aza-cyclopent-1-ena[c]phenanthrene-9,10-diol hydrochloride] | 0.12 | 37 | 70 | 480 |  | Ki (dopamine D-1 receptor [1]): 15 nM
2 | Cc1nc2c(o1)[C@@H]1c3cc(O)c(O)cc3CC[C@H]1NC2 (relative stereo) [Example 51, trans-2-Methyl-4,5,5a,6,7,11b-hexahydro-1-oxa-3,5-diaza-cyclopent-2-ena[c]phenanthrene-9,10-diol] | 0.33 | 65 | 100 | 382 |  | Ki (dopamine D-1 receptor [1]): 11 nM
3 | Cc1sc2c(c1C)CN[C@H]1CCc3cc(O)c(O)cc3[C@H]21 (relative stereo) [Example 21, trans-2,3-dimethyl-4,5,5a,6,7,11b-hexahydro-1-thia-5-aza-cyclopent-2-ena[c]phenanthrene-9,10-diol hydrobromide] |  |  | 95 |  |  | Ki (dopamine D-1 receptor [1]): 15 nM; EC50 (D-1 receptor; [4]): 182 nM; Ki (dopamine D-2 receptor): 66 nM
4 | CCCc1nc2c(s1)CN[C@@H]1CCc3cc(O)c(O)cc3[C@@H]21 (relative stereo) [Example 54, trans-2-propyl-4,5,5a,6,7,11b-hexahydro-1,5-diaza-3-thia-cyclopent-1-ena[c]phenanthrene-9,10-diol dihydrobromide] | 0.21 |  | 67 | > 5000 | 220 | EC50 (D-1 receptor; [4]): 580 nM
5 | Oc1cc2c(cc1O)[C@H]1c3sc(C(F)(F)F)nc3CN[C@@H]1CC2 (relative stereo) [Example 28, trans-2-Trifluoromethyl-4,5,5a,6,7, 11b-hexahydro-1-thia-3,5-diaza-cyclopent-2-ena[c]phenanthrene-9,10-diol] | 0.4 |  | 77 | > 5000 | 52 | EC50 (D-1 receptor; [4]): 202 nM
6 | CC(C)c1cc2c(s1)[C@@H]1c3cc(O)c(O)cc3CC[C@H]1NC2 (relative stereo) [Example 34, trans-2-Isopropyl-4,5,5a,6,7,11b-hexahydro-1-thia-5-aza-cyclopent-2-ena[c]phenanthrene-9,10-diol trifluoroacetate salt] | 0.04 | 16 | 80 | 420 | 4 | 
7 | Oc1cc2c(cc1O)C1c3cc(C45CC6CC(CC(C6)C4)C5)sc3CNC1CC2 (stereo not shown) [Example 47, 2-(Adamantyl)-4,5,5a,6,7,11b-hexahydro-3-thia-5-aza-cyclopent-1-ena[c]phenanthrene-9,10-diol hydrobromide] |  |  |  | > 5000 |  | Ki (dopamine D-1 receptor [1]; rat caudate, [125I]SCH-23982): > 10000 nM
8 | Oc1ccc2c(c1O)CCC1NCc3ccccc3C21 (stereo not shown) |  |  |  |  |  | dopamine agonist activity (dopamine receptors): inactive at dopamine receptors
9 | CC(C)c1nc2c(o1)[C@@H]1c3cc(O)c(O)cc3CC[C@H]1NC2 (relative stereo) [Example 50, trans-2-isopropyl-4,5,5a,6,7,11b-hexahydro-1-oxa-3,5-diaza-cyclopent-2-ena[c]phenanthrene-9,10-diol dihydrobromide] | > 1 | 81 | 108 | 365 |  | Ki (dopamine D-1 receptor [1]): 12 nM
10 | CN1CCc2cccc3c2[C@H]1Cc1ccc(O)c(O)c1-3 [apomorphine] |  |  |  |  |  | antipsychotic effects (schizophrenia): produce antipsychotic effects
11 | CCCc1cc2c(o1)CN[C@@H]1CCc3cc(O)c(O)cc3[C@@H]21 (relative stereo) [Example 41, trans-2-Propyl-4,5,5a,6,7,11b-hexahydro-3-oxa-5-aza-cyclopent-1-ena[c]phenanthrene-9,10-diol] | 0.07 | 46 | 87 | 600 | 21 | 
12 | Oc1cc2c(cc1O)C(c1ccccc1)CNCC2 (stereo not shown) [SKF 38393] |  |  |  |  |  | effect on side-effects of haloperidol (schizophrenia; used in conjunction with haloperidol): ameliorate the undesired side-effects of the haloperidol; food intake (rats): decrease food intake by rats
13 | CCCc1nc2c(s1)[C@H]1c3cc(O)c(O)cc3CC[C@@H]1NC2 (relative stereo) [Example 27, trans-2-propyl-4,5,5a,6,7,11b-hexahydro-1-thia-3,5-diaza-cyclopent-2-ena[c]phenanthrene-9,10-diol dihydrobromide] | > 1 |  | 93 | 210 | 11 | EC50 (D-1 receptor; [4]): 120 nM
14 | CC(C)C[C@H]1C(=O)N2CCC[C@H]2[C@]2(O)O[C@](NC(=O)[C@@H]3C=C4c5cccc6[nH]c(Br)c(c56)C[C@H]4N(C)C3)(C(C)C)C(=O)N12 [bromocriptine] |  |  |  |  |  | relief of Parkinson's disease symptoms (Parkinson's disease): relieve Parkinson's disease symptoms in some patients; antipsychotic effects (schizophrenia): produce antipsychotic effects
15 | CCc1cc2c(o1)[C@@H]1c3cc(O)c(O)cc3CC[C@H]1NC2 (relative stereo) [Example 55, trans-2-ethyl-4,5,5a,6,7,11b-hexahydro-1-oxa-5-aza-cyclopent-2-ena[c]phenanthrene-9,10-diol hydrochloride] | 0.17 | 64 | 92 | 368 | 10 | 
16 | Oc1cc2c(cc1O)C1c3ccccc3CNC1CC2 (stereo not shown) [dihydrexidine] |  |  |  |  |  | dopamine agonist activity (dopamine receptors): active as a dopamine agonist
